Measurements reported in article PMC11783400, “Assessment of Potential Drug–Drug Interactions for Novel Oral Melanocortin‐1 Receptor Agonist Dersimelagon” (Pharmacology Research & Perspectives, 2025).

How the values were obtained:
[1] = molecular target: T1, OATP1B1 (Homo sapiens, UniProt Q9Y6L6); assay: uptake inhibition in HEK293 cells expressing the transporter; assay type: cell-based
T1 construct: gene SLCO1B1; expressed in HEK293 cells
T1 sequence (Q9Y6L6 1-691): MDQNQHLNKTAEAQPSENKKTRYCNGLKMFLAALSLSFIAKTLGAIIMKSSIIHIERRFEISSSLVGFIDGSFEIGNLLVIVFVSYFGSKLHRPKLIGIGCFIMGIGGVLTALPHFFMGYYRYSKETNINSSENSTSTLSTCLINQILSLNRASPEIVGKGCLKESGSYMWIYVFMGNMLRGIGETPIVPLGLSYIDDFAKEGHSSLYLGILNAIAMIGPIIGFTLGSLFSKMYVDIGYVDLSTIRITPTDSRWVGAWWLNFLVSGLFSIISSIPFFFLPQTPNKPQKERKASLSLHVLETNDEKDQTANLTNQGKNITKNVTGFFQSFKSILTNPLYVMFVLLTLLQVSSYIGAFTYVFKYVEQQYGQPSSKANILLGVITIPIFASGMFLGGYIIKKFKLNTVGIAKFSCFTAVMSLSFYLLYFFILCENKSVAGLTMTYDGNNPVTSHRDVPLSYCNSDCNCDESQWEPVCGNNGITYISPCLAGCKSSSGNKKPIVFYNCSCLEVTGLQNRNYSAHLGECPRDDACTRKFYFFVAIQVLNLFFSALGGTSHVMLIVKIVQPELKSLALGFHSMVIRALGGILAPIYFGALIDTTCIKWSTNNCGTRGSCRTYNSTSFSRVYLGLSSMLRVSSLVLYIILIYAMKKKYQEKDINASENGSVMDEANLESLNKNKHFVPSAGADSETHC
Description: uptake inhibition in HEK293 cells expressing the transporter on OATP1B1

[2] = molecular target: T2, CYP3A4 (Table 1); CYP3A (Homo sapiens, UniProt P08684); assay: CYP activity inhibition in human liver microsomes; assay type: biochemical; conditions: read-out: IC50 (μM) / Direct inhibition
T2 construct: native enzyme in human liver microsomes
Description: CYP activity inhibition in human liver microsomes on CYP3A4 (Table 1); CYP3A (text)

[3] = molecular target: T3, CYP2B6 (Homo sapiens, UniProt P20813); assay: CYP activity inhibition in human liver microsomes; assay type: biochemical; conditions: read-out: IC50 (μM) / Direct inhibition
T3 construct: native enzyme in human liver microsomes
T3 sequence (P20813 1-491): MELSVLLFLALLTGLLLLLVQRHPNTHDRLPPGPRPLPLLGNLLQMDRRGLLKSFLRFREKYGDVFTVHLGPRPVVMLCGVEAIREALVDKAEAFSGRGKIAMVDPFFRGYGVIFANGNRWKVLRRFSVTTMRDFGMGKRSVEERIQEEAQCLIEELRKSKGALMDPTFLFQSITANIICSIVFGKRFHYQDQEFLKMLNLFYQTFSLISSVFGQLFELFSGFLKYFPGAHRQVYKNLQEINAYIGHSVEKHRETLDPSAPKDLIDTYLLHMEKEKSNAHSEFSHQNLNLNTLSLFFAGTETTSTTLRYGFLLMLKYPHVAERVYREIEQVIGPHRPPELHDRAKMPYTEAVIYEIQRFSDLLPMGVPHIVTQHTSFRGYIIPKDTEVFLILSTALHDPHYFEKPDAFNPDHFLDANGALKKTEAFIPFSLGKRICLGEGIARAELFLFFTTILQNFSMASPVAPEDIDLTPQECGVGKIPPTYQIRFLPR
Description: CYP activity inhibition in human liver microsomes on CYP2B6

[4] = molecular target: T4, CYP2D6 (Homo sapiens, UniProt P10635); assay: CYP activity inhibition in human liver microsomes; assay type: biochemical; conditions: read-out: IC50 (μM) / Direct inhibition
T4 construct: native enzyme in human liver microsomes
Description: CYP activity inhibition in human liver microsomes on CYP2D6

[5] = molecular target: T5, OAT1 (Homo sapiens, UniProt Q4U2R8); assay: uptake inhibition in HEK293 cells expressing the transporter; assay type: cell-based
T5 construct: gene SLC22A6; expressed in HEK293 cells
T5 sequence (Q4U2R8 1-563): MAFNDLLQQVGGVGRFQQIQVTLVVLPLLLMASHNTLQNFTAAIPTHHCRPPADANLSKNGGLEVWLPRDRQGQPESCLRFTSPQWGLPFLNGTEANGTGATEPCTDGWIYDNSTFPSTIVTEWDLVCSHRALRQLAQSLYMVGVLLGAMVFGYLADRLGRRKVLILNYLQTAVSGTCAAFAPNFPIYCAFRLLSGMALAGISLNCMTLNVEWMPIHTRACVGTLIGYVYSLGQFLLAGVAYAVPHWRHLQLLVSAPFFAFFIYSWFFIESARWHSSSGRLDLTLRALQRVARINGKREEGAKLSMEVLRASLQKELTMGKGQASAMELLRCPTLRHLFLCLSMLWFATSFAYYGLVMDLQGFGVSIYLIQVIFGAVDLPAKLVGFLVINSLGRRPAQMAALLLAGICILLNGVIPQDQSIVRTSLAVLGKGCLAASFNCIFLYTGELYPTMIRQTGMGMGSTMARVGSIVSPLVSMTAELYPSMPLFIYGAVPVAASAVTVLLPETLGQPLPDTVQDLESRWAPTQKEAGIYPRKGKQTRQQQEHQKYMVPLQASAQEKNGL
Description: uptake inhibition in HEK293 cells expressing the transporter on OAT1

[6] = molecular target: T6, OATP1B3 (Homo sapiens, UniProt Q9NPD5); assay: as above; assay type: cell-based
T6 construct: gene SLCO1B3; expressed in HEK293 cells
T6 sequence (Q9NPD5 1-702): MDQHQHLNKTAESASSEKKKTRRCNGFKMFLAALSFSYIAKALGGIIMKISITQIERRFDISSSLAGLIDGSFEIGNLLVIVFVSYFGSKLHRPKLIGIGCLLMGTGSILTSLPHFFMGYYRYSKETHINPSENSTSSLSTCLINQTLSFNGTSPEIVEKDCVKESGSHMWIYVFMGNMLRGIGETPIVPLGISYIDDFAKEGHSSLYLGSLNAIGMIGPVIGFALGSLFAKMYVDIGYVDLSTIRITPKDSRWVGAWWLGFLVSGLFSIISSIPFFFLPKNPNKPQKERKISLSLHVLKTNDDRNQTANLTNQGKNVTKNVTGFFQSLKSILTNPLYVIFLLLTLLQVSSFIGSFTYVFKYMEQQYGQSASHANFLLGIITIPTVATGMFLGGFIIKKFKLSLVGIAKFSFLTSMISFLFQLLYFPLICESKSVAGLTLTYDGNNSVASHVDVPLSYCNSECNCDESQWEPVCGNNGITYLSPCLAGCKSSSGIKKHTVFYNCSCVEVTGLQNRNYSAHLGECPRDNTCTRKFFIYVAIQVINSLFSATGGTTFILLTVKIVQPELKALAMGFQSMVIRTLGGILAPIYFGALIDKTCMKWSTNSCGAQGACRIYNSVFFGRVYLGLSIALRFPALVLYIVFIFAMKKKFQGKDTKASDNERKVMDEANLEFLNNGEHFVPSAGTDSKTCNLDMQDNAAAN
Description: uptake inhibition in HEK293 cells expressing the transporter on OATP1B3

T2 sequence (P08684 2-503): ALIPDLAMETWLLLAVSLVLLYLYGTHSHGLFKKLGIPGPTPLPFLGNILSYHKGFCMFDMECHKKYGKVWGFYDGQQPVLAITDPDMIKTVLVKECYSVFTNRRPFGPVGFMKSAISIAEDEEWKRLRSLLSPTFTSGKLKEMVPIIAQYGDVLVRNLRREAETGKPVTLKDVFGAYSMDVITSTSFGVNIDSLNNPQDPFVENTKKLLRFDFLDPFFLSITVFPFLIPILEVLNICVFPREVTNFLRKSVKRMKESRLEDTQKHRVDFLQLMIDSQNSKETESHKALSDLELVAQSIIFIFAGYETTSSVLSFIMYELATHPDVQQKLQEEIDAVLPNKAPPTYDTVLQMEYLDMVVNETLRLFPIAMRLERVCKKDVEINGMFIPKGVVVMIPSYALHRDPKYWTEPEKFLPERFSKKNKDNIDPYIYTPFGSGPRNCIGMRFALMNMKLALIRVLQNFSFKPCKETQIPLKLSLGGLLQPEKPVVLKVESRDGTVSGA
T4 sequence (P10635 whole entry): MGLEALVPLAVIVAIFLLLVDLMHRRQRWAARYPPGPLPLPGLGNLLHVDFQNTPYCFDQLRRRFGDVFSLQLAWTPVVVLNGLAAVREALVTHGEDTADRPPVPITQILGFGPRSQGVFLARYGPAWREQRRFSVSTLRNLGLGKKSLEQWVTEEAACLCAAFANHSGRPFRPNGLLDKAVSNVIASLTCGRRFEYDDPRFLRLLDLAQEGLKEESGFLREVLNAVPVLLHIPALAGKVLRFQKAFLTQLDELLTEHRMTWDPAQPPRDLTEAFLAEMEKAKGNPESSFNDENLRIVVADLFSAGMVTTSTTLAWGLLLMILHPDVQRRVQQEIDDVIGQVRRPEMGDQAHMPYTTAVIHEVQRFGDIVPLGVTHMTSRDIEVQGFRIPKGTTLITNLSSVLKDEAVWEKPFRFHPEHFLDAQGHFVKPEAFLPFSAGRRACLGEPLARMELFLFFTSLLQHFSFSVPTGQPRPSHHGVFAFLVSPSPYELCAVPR

IC50 [1]: 0.158 µM | IC50 [2]: 74.6 µM | IC50 [3]: 48.9 µM | IC50 [4]: > 100 µM | IC50 [5]: 71.2 µM | IC50 [6]: 0.0471 µM
SMILES: COC[C@H]1CN(C(=O)[C@]2(F)CN(C3CCCC3)C[C@H]2c2ccc(OC)cc2)C[C@@H]1c1ccc(C(F)(F)F)cc1N1CCC(C(=O)O)CC1 [dersimelagon]
